The values below are quoted from earlier work in patent US20120129799A1, “STABLE COMPOSITION OF READY-TO-USE GEMCITABINE INJECTION” (ASTRON RESEARCH LIMITED, priority 2009, published 2012).

Entries after “also recorded” stand apart in the source; their conditions may differ.

For data set [1] the following is noted: higher pH (5.0 to 9.0).

For the compound `Nc1ccn([C@@H]2O[C@H](CO)[C@@H](O)C2(F)F)c(=O)n1` [Gemcitabine, 1-(2-oxo-4-amino-1,2-dihydropyrimidin-1-yl)-2-deoxy-2,2-difluororibose], where the note is “aqueous solution, pH 3.2 (sodium acetate), thermally stressed conditions”, the degradation products obtained result is reported as “four significant degradation products”. The “chemical stability of aqueous solution” value (aqueous solution, pH of approximately 3.0) is reported as “not chemically stable”. The “stability in aqueous solution” value (higher pH (5.0 to 9.0)) is listed as “remains stable”. Moreover, the stability entry (lower pH) is recorded as “poor stability”. For the same compound, the aqueous solubility entry in data set [1] is recorded as “low aqueous solubility; also recorded: very low solubility”.
